Results as given in PMC10780633, “Novel Multi-Target Agents Based on the Privileged Structure of 4-Hydroxy-2-quinolinone” (Molecules, 2023).

Tests used:
soybean lipoxygenase = biological target: T1, soybean lipoxygenase (Glycine max, UniProt P08170); experiment: Soybean LOX inhibition in vitro (UV absorbance-based assay); assay type: biochemical
T1 construct: purchased Sigma Chemical, Co. (St. Louis, MO, USA)
T1 sequence (P08170 1-839): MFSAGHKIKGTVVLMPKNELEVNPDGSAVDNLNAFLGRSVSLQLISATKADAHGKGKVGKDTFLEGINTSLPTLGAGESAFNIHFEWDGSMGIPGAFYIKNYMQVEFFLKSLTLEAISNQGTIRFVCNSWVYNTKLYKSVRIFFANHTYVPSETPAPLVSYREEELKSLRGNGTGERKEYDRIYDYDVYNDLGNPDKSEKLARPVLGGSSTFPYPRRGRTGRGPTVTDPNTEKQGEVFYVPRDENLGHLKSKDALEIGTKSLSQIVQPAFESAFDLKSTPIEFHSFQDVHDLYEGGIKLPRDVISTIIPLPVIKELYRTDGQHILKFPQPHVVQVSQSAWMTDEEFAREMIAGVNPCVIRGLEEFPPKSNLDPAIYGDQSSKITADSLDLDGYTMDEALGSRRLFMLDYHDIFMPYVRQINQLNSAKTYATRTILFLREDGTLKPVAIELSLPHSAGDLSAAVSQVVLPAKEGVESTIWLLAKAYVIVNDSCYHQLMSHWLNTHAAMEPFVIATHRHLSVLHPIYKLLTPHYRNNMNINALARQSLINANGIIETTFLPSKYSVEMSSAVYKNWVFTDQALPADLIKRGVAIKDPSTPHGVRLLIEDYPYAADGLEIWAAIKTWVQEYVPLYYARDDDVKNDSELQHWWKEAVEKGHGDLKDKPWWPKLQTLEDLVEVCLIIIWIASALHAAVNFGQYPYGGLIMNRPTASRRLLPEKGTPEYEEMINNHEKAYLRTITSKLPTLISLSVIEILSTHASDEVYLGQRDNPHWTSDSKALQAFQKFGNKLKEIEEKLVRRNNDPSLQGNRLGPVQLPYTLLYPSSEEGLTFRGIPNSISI
Method: For this study, the UV absorbance-based soybean LOX assay was used.
The assay for the determination of the inhibition of soybean LOX was performed according to the methods of Hadjipavlou-Litina et al., which we have also used in our previous works.

[1] = Competition with DMSO for hydroxyl radicals; settings: 0.1 mM
Method: (§1) In this work, the carboxamides 3a–3u, the quinolinone–cinnamic or benzoic acid hybrids 11a–11g and the reverse amides 16a–16c were tested for their antioxidant activity via five in vitro techniques; (i) the interaction with the stable free radical 2,2-diphenyl-1-picrylhydrazyl (DPPH); (ii) the inhibition of lipid peroxidation; (iii) the hydroxyl radical scavenging ability; (iv) the 2,2-azino-bis(3-ethylbenzothiazoline-6-sulfonic acid (ABTS) radical cation (ABTS·^+) reduction; and (v) the superoxide anion radical scavenging ability.
The assay was performed according to the methods of Pontiki et al. Trolox was used as a reference compound [78].

[2] = Interaction with the stable free radical DPPH (reducing activity); settings: for Interaction with the Free Radical DPPH (%): 100 μM
Method: as §1

[3] = Non-enzymatic superoxide anion radical scavenging assay (PMS); settings: 0.1 mM
Method: as §1
The experimental technique used for this assay was performed according to our previous works. Caffeic acid was used as an appropriate standard.

[4] = ABTS radical cation decolorization assay; settings: 0.1 mM
Method: as §1
The experimental technique used in this section was performed according to the methods of Pontiki et al.. The results were compared to the appropriate standard inhibitor Trolox.

[5] = Inhibition of lipid peroxidation of linoleic acid induced by AAPH radical; settings: 100 μM
Method: as §1
The assay for the determination of the inhibition of linoleic acid peroxidation induced by the free radical initiator […](2-amidinopropane) dihydrochloride (AAPH) was performed according to the methods of Hadjipavlou-Litina et al., which we have also used in our previous works.

Structure (SMILES) | Inhibition of Soybean Lipoxygenase % at 0.1 mM (soybean lipoxygenase) | IC50 (soybean lipoxygenase) [µM] | OH% (hydroxyl radical scavenging) [1] | Interaction with the Free Radical DPPH (%) ([2]; 20 min) | Interaction with the Free Radical DPPH (%) ([2]; 60 min) | PMS% (superoxide anion radical scavenging) [3] | ABTS% (ABTS radical cation decolorization) [4] | Inhibition of Lipid Peroxidation of Linoleic Acid Induced by AAPH Radical (%) [5] | DPPH radical scavenging activity, time not specified ([2]; reaction time not given)
O=C(NCCO)c1c(O)c2ccccc2n(-c2ccccc2)c1=O [Compound 3d, 4-hydroxy-N-(2-hydroxyethyl)-2-oxo-1-phenyl-1,2-dihydroquinoline-3-carboxamide] | inactive and no | – | no | 15.9 | 20.8 | 66.6% | no activity and no | 32.8% | –
CCCCCCCNC(=O)c1c(O)c2ccccc2n(C)c1=O [Compound 3e, N-heptyl-4-hydroxy-1-methyl-2-oxo-1,2-dihydroquinoline-3-carboxamide] | no activity and no | – | 86.1% | 6.6 | 12.2 | 66.6% | 2.6% | inactive and no | –
O=C(Nc1ccc(O)cc1)c1c(O)c2ccccc2n(-c2ccccc2)c1=O [Compound 3g, 4-hydroxy-N-(4-hydroxyphenyl)-2-oxo-1-phenyl-1,2-dihydroquinoline-3-carboxamide] | – | 27.5 | 67.7% | 40.7 | 51.7 | no | 72.4% | 100% | –

Further lines, with some results ahead:

Inhibition of Soybean Lipoxygenase % at 0.1 mM (soybean lipoxygenase) | IC50 (soybean lipoxygenase) [µM] | Structure (SMILES) | OH% (hydroxyl radical scavenging) [1] | Interaction with the Free Radical DPPH (%) ([2]; 20 min) | Interaction with the Free Radical DPPH (%) ([2]; 60 min) | PMS% (superoxide anion radical scavenging) [3] | ABTS% (ABTS radical cation decolorization) [4] | Inhibition of Lipid Peroxidation of Linoleic Acid Induced by AAPH Radical (%) [5] | DPPH radical scavenging activity, time not specified ([2]; reaction time not given)
– | 10 | CC1CCCCC1NC(=O)c1c(O)c2ccccc2n(C)c1=O (centres unmarked) [Compound 3h, 4-hydroxy-1-methyl-N-(2-methylcyclohexyl)-2-oxo-1,2-dihydroquinoline-3-carboxamide] | 78.6% | 6.0 | 8.1 | no | no | 31% | –
inactive and no | – | CC1CCCCC1NC(=O)c1c(O)c2ccccc2n(-c2ccccc2)c1=O (centres unmarked) [Compound 3i, 4-hydroxy-N-(2-methylcyclohexyl)-2-oxo-1-phenyl-1,2-dihydroquinoline-3-carboxamide] | 78.1% | 5.2 | 3.7 | no | no | 36% | –
– | 100 | Cn1c(=O)c(C(=O)Nc2ccccc2O)c(O)c2ccccc21 [Compound 3j, 4-hydroxy-N-(2-hydroxyphenyl)-1-methyl-2-oxo-1,2-dihydroquinoline-3-carboxamide] | 100% | 32.5 | 46.5 | no | 49.7% | 32.8% | –
– | 315 | Cc1ccccc1NC(=O)c1c(O)c2ccccc2n(C)c1=O [Compound 3k, 4-hydroxy-1-methyl-2-oxo-N-(o-tolyl)-1,2,dihydroquinoline-3carboxamide] | totally inactive and no | 1.4 | 11.8 | 61.5% | 54.5% | 41.4% | inactive
